US20080031818A1, “Use of Modulators of a Novel Form of Muscle Selective Calcineurin Interacting Protein (Mcip-1-38) as a Treatment for Cardiovascular Diseases” (GILEAD COLORADO, INC., priority 2004, published 2008)

Experiments:
[1] = system: beta myosin heavy chain; test: Beta myosin heavy chain protein by cytoblot; format: cell-based, rat; details: NRVM, 48 hours exposure to PE, FIG. 10A
Method: NRVM culture. For preparations of neonatal rat ventricular myocytes (NRVMs), hearts were removed from 10-20 newborn (1-2 days old) Sprague-Dawley rats. Isolated ventricles were pooled, minced and dispersed by three 20-minute incubations at 37° C. in Ads buffer (116 mM NaCl, 20 mM HEPES, 10 mM NaH2PO4, 5.5 mM glucose, 5 mM KCl, […], pH 7.4) containing collagenase Type II (65 units/ml, Worthington) and pancreatin (0.6 mg/ml, GibcoBRL). Dispersed cells were applied to a discontinuous gradient of 40.5% and 58.5% (v/v) Percoll (Amersham Biosciences), centrifuged, and myocytes collected from the interface layer. Myocyte preparations were pre-plated in Dulbecco's modified Eagle's medium (DMEM, Cellgro), supplemented with 10% (v/v) fetal bovine serum (FBS, HyClone), 4 mM L-glutamine and 1% penicillin/streptomycin for 1 hour at 37° C. to reduce fibroblast contamination, then plated at a density of 2.5′10^5 cells per well on 6-well tissue culture plates (or 10,000 cells/well on 96-well tissue culture plates) coated with a 0.2% (w/v) gelatin solution. After 24 hours in culture, myocyte preparations were transferred to serum-free maintenance medium (DMEM supplemented with 0.1% (v/v) Nutridoma (Roche), L-glutamine and penicillin/streptomycin). […]
Myosin heavy chain protein quantitation by cytoblot. […] Plates were read in a 96-well luminometer (Packard Fusion).

[2] = system: neonatal rat ventricular myocytes (NRVM); test: Cardiomyocyte cell volume (Coulter counter); format: cell-based; details: 48 hours exposure to PE, versus untreated controls, FIG. 9
Method: NRVM culture. For preparations of neonatal rat ventricular myocytes (NRVMs), hearts were removed from 10-20 newborn (1-2 days old) Sprague-Dawley rats. Isolated ventricles were pooled, minced and dispersed by three 20-minute incubations at 37° C. in Ads buffer (116 mM NaCl, 20 mM HEPES, 10 mM NaH2PO4, 5.5 mM glucose, 5 mM KCl, […], pH 7.4) containing collagenase Type II (65 units/ml, Worthington) and pancreatin (0.6 mg/ml, GibcoBRL). Dispersed cells were applied to a discontinuous gradient of 40.5% and 58.5% (v/v) Percoll (Amersham Biosciences), centrifuged, and myocytes collected from the interface layer. […]
Hypertrophy and toxicity assays. Primary hypertrophy endpoints for NRVM included quantitation of ANF secretion, total cellular protein and cell volume. ANF in media supernatants was quantitated by competitive ELISA using a monoclonal anti-ANF antibody (Biodesign) and a biotinylated ANF peptide (Phoenix Peptide). Total cellular protein was quantitated by standard Coomassie dye-binding assay; cells were lysed in protein assay reagent (BioRad) and absorbance at A595 was measured after 1 hour. […] After recovery by centrifugation, cell pellets were washed in PBS, resuspended in 10 ml IsoFlow electrolyte solution (Beckman-Coulter) and analyzed with a Z2 Coulter Particle Counter and Size Analyzer (Beckman-Coulter). […]

## CNC[C@H](O)c1cccc(O)c1 [phenylephrine]
[1]
  beta myosin protein expression: increased beta myosin protein expression by several fold
[2]
  increase in cell volume: approximately 50%
